We go through 5 molecules from patent US12697328B2, “Methods for treating metastasis with cathepsin C inhibitors” (Shanghai Institute of Nutrition and Health, Chinese Academy …, priority 2020, dated 2026).

Format in all cases: cell-based
The target in one test is T1, membrane-bound PR3 (Homo sapiens, UniProt P24158).
T1 construct: endogenous in cells; host or cells: human peripheral-blood neutrophils (whole-cell suspension)
T1 sequence (P24158 28-248): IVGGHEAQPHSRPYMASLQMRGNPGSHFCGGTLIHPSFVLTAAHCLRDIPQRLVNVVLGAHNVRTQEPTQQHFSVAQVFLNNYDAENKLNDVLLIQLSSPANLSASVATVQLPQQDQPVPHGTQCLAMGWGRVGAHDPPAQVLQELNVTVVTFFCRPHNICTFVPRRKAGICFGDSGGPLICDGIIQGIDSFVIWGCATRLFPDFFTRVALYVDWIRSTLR
As to the kind of experiment: Membrane-bound PR3 activity of neutrophils cultured with CM of SCP28 cells overexpressing CTSC. Conditions: Sivelestat 10 μM, Alvelestat 10 μM, CTSGi 20 μM, FIG. 7D. The procedure:
The procedure of enzyme activity assays were conducted as previously reported (Korkmaz et aL, “Neutrophil proteinase 3 and dipeptidyl peptidase I (cathepsin C) as pharmacological targets in granulomatosis with polyangiitis (Wegener granulomatosis),” Semin. Immunopathol. 35:411-421 (2008)). The PR3 or NE enzymatic activity was quantified by detecting the rate of hydrolysis of the PR3-specific substrate (Abz)-VADnorVADRQ-(EDDnp) or NE specific substrate (Abz)-APEEIMRRQ-(EDDnp) by cell suspension or free enzymes. To analyze membrane-bound PR3 activity, neutrophils were cultured in cancer cell CM or non-conditioned medium, and treated with DMSO or various inhibitors, including Sivelestat (10 μM), Alvelestat (10 μM) and CTSGi (20 μM) for 30-45 min at 37° C. Then, cells were suspended in activity buffer (5×10^6 per ml, PBS, 4 mM EGTA, pH 7.4) with 15 μM of the PR3-specific substrate, and the kinetic of hydrolysis was followed by measuring the fluorescence at λex=320 nm and λem=420 nm. For activation of PR3 in isolated plasma membrane fraction, recombinant human CTSC (1071-CY, R&D) was activated according to the manufacturer's instruction. […] The activity of free PR3 and NE were measured in the assay buffer (50 mM Tris, 750 mM NaCl, pH 7.4) with 15 μM specific substrates by recording the fluorescence at λex=320 nm and λem=420 nm. […]

In a further test the test system is IL-1β. The experiment in a line: IL-1β secretion of neutrophils pre-treated with CM of SCP28 cancer cells (ELISA). Conditions: human neutrophils pre-treated with CM of SCP28 with CTSC overexpressed; FIG. 7H. As to the method:
ELISA kits were used to assay the levels of human IL-1β (88-7621-88, ThermoFisher), mouse IL-1β (432604, Biolegend), mouse IL6 (88-7064-88, ThermoFisher), mouse CCL3 (88-56013-88, ThermoFisher) in cell culture supernatants or sera according to the manufacturer's instruction. Briefly, 96-well MaxiSorp™ ELISA Plates (44-2404, ThermoFisher) was coated with capture antibody overnight at 4° C. in coating buffer (15 mM of Na2CO3, 35 mM of NaHCO3, at pH 9.6). After three washes in PBS, the wells were blocked with 5% BSA in PBS for 45 min at room temperature. Then, 100 μl of cell culture supernatants or sera and standard samples were added into the wells and incubated for 2 h at room temperature, and the plates were washed three times with washing buffer (1% BSA, 0.05% Tween-20 in PBS). Next, biotin-conjugated detection antibody in 2.5% BSA was added into the wells and incubated for 2 h at room temperature. After three washes with washing buffer, HRP-streptavidin was incubated for 45 min at room temperature. Then, signals were detected using TMB solution and read at 450 nm.
On the technique in general: An ELISA detects its analyte on a solid surface through an enzyme-linked reagent.

The next test relates to murine neutrophils. The experiment in a line: Reactive oxygen species (ROS) analysis of neutrophils pre-treated with 4T07 conditioned medium. The settings on record: 4T07 CM with CTSC overexpressed, inhibitors 10 μM, FIGS. 8C, 8E. The procedure: To measure the ROS levels, neutrophils were cultured in cancer cell CM or non-conditioned medium, and treated with DMSO or various inhibitors, including Sivelestat (10 μM), BAY11-7082 (10 μM) and SB203580 (10 μM) for 1 h at 37° C. Cells were then harvested and resuspended in assay buffer (PBS, 4 mM EGTA, pH 7.4, containing 10 μM CM-H2DCFDA, Invitrogen), incubated for 15 min at 37° C. in dark, washed with pre-chilled PBS, followed by FACS analysis within 30 min.
The release of reactive oxygen species (ROS) by neutrophils is known to induce NET formation. […] Commum. 6, 6673 (2015).
ROS analysis of murine neutrophils pre-treated with 4T07 conditioned medium show increased ROS production results from CTSC overexpression (FIG. 8E).

In a further test the test system is 4T07 cancer cells. The experiment in a line: Three-dimensional spheroid culture of 4T07 cells in neutrophil medium. Conditions: rmTSP-1 alone, FIG. 8H. The procedure:
The procedure of 3D spheroids culture assay was previously reported (Taylor et al., “Lysyl oxidase contributes to mechanotransduction-mediated regulation of transforming growth factor-beta signaling in breast cancer cells,” Neoplasia 13:406-418 (2011)). Briefly, 4T07 cells (200 per well) were cultured in 48-well plates on 100% growth-factor-reduced Matrigel (356231, BD) cushions in spheroid medium (a 1:1 mixture of 1% FBS DMEM and medium from neutrophils cultured in the cancer cell CM, 50% Matrigel supplemented with 50 μg/ml mTSP-1 (7859-TH-050). Upon completed gelation, 250 μl of culture medium (a 1:1 mixture of 1% FBS DMEM and medium from neutrophils cultured in the cancer cell CM) with 10 μg/ml mTSP-1 (7859-TH-050) was added to each well and the culture medium was changed every three days. On day 7-10, the numbers of the spheroids were analyzed.
When both rmTSP-1 and an IL6-blocking antibody are added to CTSC overexpressing 4T07 conditioned medium, spheroid growth is inhibited (FIG. 8I, left panel). […] The inhibitory effects of α-IL6, DNase I, and a combination thereof, on spheroid formation can be seen in the images provided in FIG. 8I.

In a further test the test system is p38. As to the kind of experiment: p38 phosphorylation in neutrophils pre-treated with 4T1 conditioned medium and/or rhPR3. The settings on record: murine neutrophils pre-treated with 4T1 CM and/or rhPR3, regardless of CTSC knockdown; FIG. 8D. As to the method: Cultured cells were collected by scraper or trypsinized and then lysed with lysis buffer (50 mM Tris-HCl, 150 mM NaCl, 1% NP-40 detergent, 0.5% sodium deoxycholate, 0.1% SDS with phosphatase and protease inhibitors), and dispersed tissue were homogenized in RIPA buffer on ice for 15 min, followed by centrifugation at 17,000 g for 15 min. The protein concentration was measured with a BCA Protein Assay Kit. Proteins of […] were loaded for membrane proteins, IL-1β processing, p65 phosphorylation and the other assays, respectively, and separated on 8-12% SDS-polyacrylamide gel. For cancer cell conditioned medium (CM) collection, cells were grown to ~80% confluence in 10 cm culture dishes. After three times washing with serum-free medium at 37° C., the cells were incubated in serum-free medium at 37° C. for 24 h. The CM were collected, centrifuged at 2,000 g for 10 min, filtrated by 0.22 μm filters, stored at −80° C. until used. The secreted proteins in CM were collected by TCA precipitation. Briefly, 25% v/v TCA was added into 1 ml CM with phosphatase and protease inhibitors, incubated overnight at 4° C., and then centrifuged at 20,000 g for 60 min, after which the supernatant was discarded and the pellet was washed twice with 1 ml pre-chilled acetone, centrifuged again at 20,000 g for 5 min at 4° C. […]

Consider `Cc1c(-c2ccnn2C)cc(C(=O)NCc2ccc(S(C)(=O)=O)cn2)c(=O)n1-c1cccc(C(F)(F)F)c1` [Alvelestat], for which the “upregulated PR3 activity resulting from CTSC overexpression” value on membrane-bound PR3 is reported as “no effect”. Besides, the “IL-1β levels (secretion) of neutrophils” value with IL-1β is recorded as “only PR3 inhibitor Silvelestat reduces”.

In the case of `Cc1ccc(S(=O)(=O)/C=C/C#N)cc1` [BAY 11-7082], in the test with murine neutrophils, the “ROS production / ROS levels” value is listed as “no effect”. Further, the “IL-1β levels (secretion) of neutrophils” value in the test with IL-1β is listed as “does not reduce”.

Take `C[S+]([O-])c1ccc(-c2nc(-c3ccncc3)c(-c3ccc(F)cc3)[nH]2)cc1` (centres unmarked) [SB203580]: in the test on murine neutrophils, the “ROS production / ROS levels” value is listed as “significantly reduces”.

Take “rmTSP-1: recombinant murine TSP-1, a metastasis-suppressive ECM protein”: the “spheroid growth of 4T07 cancer cells” value is given as “does not block” in the test on 4T07 cancer cells (CTSC overexpressing 4T07 conditioned medium) and “unable to block” with 4T07 cancer cells (neutrophil medium pre-treated with PMA).

B1: rhPR3: recombinant human active PR3 (protein, UniProt P24158 28-248, looked up)
Myeloblastin: IVGGHEAQPHSRPYMASLQMRGNPGSHFCGGTLIHPSFVLTAAHCLRDIPQRLVNVVLGAHNVRTQEPTQQHFSVAQVFLNNYDAENKLNDVLLIQLSSPANLSASVATVQLPQQDQPVPHGTQCLAMGWGRVGAHDPPAQVLQELNVTVVTFFCRPHNICTFVPRRKAGICFGDSGGPLICDGIIQGIDSFVIWGCATRLFPDFFTRVALYVDWIRSTLR
For B1, the p38 phosphorylation result with p38 is recorded as “increased”.
